For series [1] the following is noted: cited from earlier work.
Series [2] can be described thus: Bulk solution stability of ASA in TBA-water system. The format is physicochemical. Particulars: 80/20, 70/30 and 60/40 TBA/water solutions, 24-hour storage at ambient storage conditions. On the procedure:
For a robust lyophilization process, the drug should not degrade in the bulk solution for lyophilization for at least 24 hours.

Series [3] is described as follows: Lyophilization of aspirin with lysine from water, HPLC analysis. The format is physicochemical. Particulars: ASA with lysine in water, 50 mg/ml, pH 6.5, HPLC. On the procedure:
The pH of the solution was 4.5. We added an additional amount of lysine to raise the pH of the bulk solution to 6.5. When all the drug was dissolved, a clear solution was formed. […] The product, however, was not lyophilized properly. The lyophilized cake collapsed.

The nature of series [4]: Particle size distribution (Malvern Master sizer 2000, dry powder volume distribution). In kind it is physicochemical. The following applies: API used to make the batches. An excerpt:
Additionally, we have measured the particle size distribution of the lyophiles and API. The measurement of particle size (Malvern, Master sizer 2000) of all the samples were done by using dry powder volume distribution method.

A short description of series [5]: pH of bulk and reconstituted solutions of ASA lyophilized with bases from TBA/water. The format is physicochemical. From the text: The pH of the solution was raised to 6.5 using 1N sodium hydroxide. Phase separation was observed, probably due to salting out of inorganic base from TBA/Water system. In the next trial, we first raised the pH of the solution to 5.0 using 1N sodium hydroxide, and then sodium phosphate, dibasic to raise the pH to 6.5. Sodium phosphate, dibasic was used for a better control of pH. Since we still observed phase separation it appears that inorganic bases or buffers may not be compatible with a 80% TBA/20% water system. We may require more water, for example, 70% TBA/30% water in the system to dissolve the alkalinizing agents.
Inorganic buffers such as sodium phosphate, dibasic, are not soluble in this solvent system.
The reconstituted solution pH was 4.71.
In the next trial, we investigated incorporation of […] to facilitate complete neutralization. […] Arginine was, then, slowly added to the slurry to neutralize aspirin. […] The apparent pH of the bulk solution was 6.49. 5 ml aliquots placed in flint vials and lyophilized. Upon completion of lyophilization, the content of vial was reconstituted with 5 ml of Water for Injection. […] The reconstituted solution pH was 4.8.
Based on the above studies, it was evident that larger amount of base is needed to neutralize ASA in the preferred solvent system. To incorporate more base in the bulk solution, we explored use of 60/40 TBA/water system as solvent for lyophilization. […] The apparent pH of the bulk solution was 6.31. […] The reconstituted solution pH was 4.41. […] We reconstituted the lyophile with 5 ml of buffer solution containing different concentrations of disodium phosphate.

In another series the test system is rabbit ear vein. The series can be described thus: IV irritation studies in rabbit ear vein. The format is in vivo. The following applies: ASA solution of different osmolalities (300 to 1300 mOsm/kg) injected in rabbit ear vein. An excerpt: It is an unexpected discovery or finding.
The test system of a further series is platelet aggregation. The following applies: following oral dosing, oral tablet or capsule; cited from earlier work.

For the substance o-acetylsalicylic acid [ASA], the aqueous solubility result in series [1] is “about 3 mg/ml”. In addition, the “time to 10% of potency loss” value in series [1] (concentrated bulk solution) is reported as “about 1.3 hours”. The “degradation in bulk solution” value in series [2] is listed as “No appreciable degradation”. In addition, the “ASA degraded during the lyophilization process” value in series [3] is given as “about 40%”. In addition, in series [4], the “D50% (μm)” value worked out at 92.9 μm, the “D90% (μm)” value is listed as 249.5 μm and the “D100% (μm)” value came to 431.0 μm. In addition, the “apparent pH of the bulk solution” value in series [5] (2 g aspirin, 100 mg sodium hydroxide, about 1.6 g arginine in 100 ml 70/30 TBA/water) worked out at 6.49. In series [5] (2 g of ASA and 400 mg sodium hydroxide in 100 ml 60/40 TBA/water), the “apparent pH of the bulk solution” value came out at 6.31. In series [5] (lyophile of 2 g aspirin, 100 mg sodium hydroxide, about 1.6 g arginine per 100 ml 70/30 TBA/water, 5 ml aliquot reconstituted with 5 ml Water for Injection), the “reconstituted solution pH” value stood at 4.8. Also, in the series on rabbit ear vein, the IV irritation entry is given as “no irritation was observed”. In the series with platelet aggregation, the “onset of inhibition of platelet aggregation” value is given as “approximately 40 minutes”.

(Values after patent US12048708B2 (RHOSHAN PHARMACEUTICALS, INC., priority 2017, dated 2024).)
